Measured values as given in patent US5032597A, “Method of using phenylquinolinecarboxylic acids and derivatives for lymthoid leukemia treatment in a mammal” (priority 1987, dated 1991).
In brackets after ≈: the same amount, converted by molar mass. Several values for one entry are separate records, joined by “and”; a condition that tells them apart may be missing. Identical values can stand only once. Like-named read-outs stand apart in the source and are kept apart here.

What was measured:
L1210 leukemia = experiment: Lymphoid Leukemia L1210, survival of tumored mice; type: in vivo, CD2F1 mice; conditions: for response vs control in vivo at 200 mg/kg: 200 mg/kg i.p.; for response vs control in vivo at 25 mg/kg: 25 mg/kg i.p.; for response vs control in vivo at 100 mg/kg: 100 mg/kg i.p.; for response vs control in vivo at 50 mg/kg / L1210 Leukemia % T/C (median survival time): 50 mg/kg i.p.; for response vs control in vivo at 400 mg/kg: 400 mg/kg i.p.; for response vs control in vivo at 75 mg/kg: 75 mg/kg i.p.; for response vs control in vivo at 300 mg/kg: 300 mg/kg i.p.
Description: The efficacy of the compounds of this invention against the transplanted mouse tumors was evaluated in test systems currently in use at the National Cancer Institute for the detection and assessment of anticancer activity. […] J. Cancer, 17, 129-142, (1981); Venditti, J. M., Seminars in Oncology, 8 (4) (1981); Goldin, A. and J. M. Venditti, in Recent Results in Cancer Research, 70, S. K. Carter and Y. Sakurai, Eds., Springer-Verlag, Berlin/Heidelberg, 1980].
The animals used in this test were CD2 F1 mice, all males weighing a minimum of 18 g and all within a 4 g weight range at the start of the test. The test group consisted of six mice. The tumor was implanted in each of the test mice by the intraperitoneal injection of 0.1 ml of diluted ascitic fluid containing 10^5 cells drawn from a mouse with L1210 leukemia. The test compounds were suspended in hydroxypropylcellulose or saline with Tween® 80 surfactant or dissolved in saline and injected intraperitoneally, at various doses, once daily for nine consecutive days starting on day one relative to the day of tumor inoculation (day 0). The control mice received injections of saline or hydroxypropylcellulose vehicle only. The mice were weighed and survivors were recorded on a regular basis for 30 days. The median survival time and the ratio of the median survival time for the treated (T) and control (C) mice was calculated. […] Drug effectiveness was assessed on the basis of the survival time. Results were expressed as a percentage of the control survival time (Median Survival Time: T/C ×100%). The criterion for effectiveness was determined by: T/C×100≥125 percent.

[1] = system: human colon carcinoma cells HCT-15; experiment: Human colon tumor test in vitro, HCT-15 cell growth inhibition; type: cell-based; conditions: HCT-15 cells, compound day 1 to day 4; for in vitro HCT-15 ID50 (50 percent inhibition of number of doublings): 4320 min; for IC50: Homo sapiens, HCT-15, 72 h, read-out: in vitro HCT-15 ID50 (50 percent inhibition of number of doublings)
Description: The compound of this invention were also tested for their ability to inhibit the growth of human colon carcinoma cells in vitro.
The human colon carcinoma cells, designated HCT-15, were derived from a specimen of an adenocarcinoma of human colon removed during surgery. The cells were grown in Roswell Park Medical Institute (RPMI) Medium 1640 supplemented with 10% heat inactivated fetal calf serum, penicillin (100 units/ml), streptomycin (100 μg/ml), gentamicin (20 μg/ml), fungizone (25 μg/ml), 0.075 percent sodium bicarbonate, […] 4-(2-hydroxyethyl)-1-piperazineethanesulfonic acid and […] N-tris(hydroxymethyl)methylglycine. […] On day 1 cells from sample dishes were harvested using trypsin (0.25%) treatment and counted with a hemocytometer to determine the number of cells per dish at the time of the addition of the compounds. Compounds of this invention were added in varying concentrations to other cultures. On day 4, treated and control cultures were harvested by trypsin treatment and the number of cells was determined. The number of doublings for the control cells was determined from the cell numbers on days 1 and 4. The ID50, the concentration of compound required to inhibit by 50 percent the number of doublings, was then calculated from the dose-response curve in which cell numbers were plotted on log-log paper against compound concentrations in micrograms per ml.

[2] = Mus musculus, L1210, ip, 720 h, read-out: L1210 Leukemia % T/C (median survival time)
[3] = Mus musculus, L1210, ip, 720 h, nonoptimal Q1DX9 instead of Q3DX9, read-out: L1210 Leukemia % T/C (median survival time)

| Structure (SMILES) | in vitro HCT-15 ID50 (50 percent inhibition of number of doublings) [1] | IC50 [1] [mg/L] | further results |
| --- | --- | --- | --- |
| CCc1c(-c2ccc(C3CCCCC3)cc2)nc2ccc(F)cc2c1C(=O)O [Example 10] | 0.03 mg/L |  | response vs control in vivo at 200 mg/kg (L1210 leukemia; [2]): 163% |
| Cc1c(-c2ccc(-c3ccc(F)cc3)cc2)nc2ccc(F)cc2c1C(=O)O [Example 121] | < 0.50 mg/L |  | response vs control in vivo at 18 mg/kg (L1210 leukemia; Mus musculus, L1210, ip, 720 h, 18 mg/kg i.p., read-out: L1210 Leukemia % T/C (median survival time)): 175% |
| Cc1c(-c2ccc(Sc3ccccc3)cc2)nc2ccc(Cl)cc2c1C(=O)O [Example 111] |  | < 0.5 | response vs control in vivo at 25 mg/kg (L1210 leukemia; [2]): 125% |
| Cc1c(-c2ccc(-c3ccccc3)cc2)nc2ccc(Cl)cc2c1C(=O)O [Example 109] | < 0.50 mg/L |  | response vs control in vivo at 100 mg/kg (L1210 leukemia; [2]): 172% |
| Cc1c(-c2ccc(-c3ccccc3F)cc2)nc2ccc(F)cc2c1C(=O)O [Example 176] | < 0.50 mg/L and 0.41 mg/L |  | response vs control in vivo at 37 mg/kg (L1210 leukemia; Mus musculus, L1210, ip, 720 h, 37 mg/kg i.p., read-out: L1210 Leukemia % T/C (median survival time)): 175% |
| O=C(O)c1cc(-c2ccc(C3CCCCC3)cc2)nc2ccc(F)cc12 [Example 95] | 0.04 mg/L |  | response vs control in vivo at 100 mg/kg (L1210 leukemia; [3]): 108% |
| Cc1c(-c2ccc(-c3cccc(F)c3)cc2)nc2ccc(F)cc2c1C(=O)O [Example 73] |  | < 0.1 | response vs control in vivo at 50 mg/kg (L1210 leukemia; [2]): 195% |
| Cc1c(-c2ccc(OCc3ccccc3)cc2)nc2ccc(F)cc2c1C(=O)O [Example 106] | 1.20 mg/L |  | response vs control in vivo at 25 mg/kg (L1210 leukemia; [3]): 107% |
| Cc1c(-c2ccc(C3CCCCC3)cc2)nc2ccc(F)cc2c1C(=O)O [Example 169] | 0.04 mg/L |  |  |
| Cc1c(-c2ccc(-c3ccccc3)cc2)nc2cc(Cl)ccc2c1C(=O)O [Example 139] | < 5.00 mg/L |  | response vs control in vivo at 100 mg/kg (L1210 leukemia; [2]): 146% |
| CCCCCCc1ccc(-c2nc3ccc(F)cc3c(C(=O)O)c2C)cc1 [Example 8] |  | 0.4 (≈ 1.09 µM) | response vs control in vivo at 400 mg/kg (L1210 leukemia; [2]): 147% |
| Cc1c(-c2ccc(-c3ccccc3F)cc2)nc2ccc(Cl)cc2c1C(=O)O [Example 70] |  | < 0.1 |  |
| CCc1ccc(-c2ccc(-c3nc4ccc(F)cc4c(C(=O)O)c3C)cc2)cc1 [Example 130] | > 1.0 mg/L |  | response vs control in vivo at 50 mg/kg (L1210 leukemia; [2]): 132% |
| COc1ccc(-c2ccc(-c3nc4ccc(Cl)cc4c(C(=O)O)c3C)cc2)cc1 [Example 24] | 0.28 mg/L |  | response vs control in vivo at 400 mg/kg (L1210 leukemia; [2]): 154% |
| Cc1ccc2c(C(=O)O)c(C)c(-c3ccc(-c4ccccc4)cc3)nc2c1 [Example 145] |  | < 0.5 | response vs control in vivo at 75 mg/kg (L1210 leukemia; [2]): 132% |
| Cc1ccc(-c2ccc(-c3nc4ccc(F)cc4c(C(=O)O)c3C)cc2)cc1Cl [Example 38] |  | > 1 | response vs control in vivo at 200 mg/kg (L1210 leukemia; [2]): 238% |
| Cc1c(-c2ccc(SC(C)C)cc2)nc2ccc(F)cc2c1C(=O)O [Example 13] |  | 0.24 (≈ 0.675 µM) | response vs control in vivo at 400 mg/kg (L1210 leukemia; [2]): 129% |
| Cc1c(-c2ccc(-c3ccccc3)cc2)nc2ccc(Cl)cc2c1C(=O)O [Example 19] |  | < 0.5 | response vs control in vivo at 25 mg/kg (L1210 leukemia; [2]): 234% |
| Cc1cc2c(C(=O)O)c(C)c(-c3ccc(Oc4ccccc4)cc3)nc2cc1Cl [Example 59] |  | > 5 | response vs control in vivo at 300 mg/kg (L1210 leukemia; [2]): 152% |
| COc1ccc(-c2ccc(-c3nc4ccc(Cl)cc4c(C(=O)O)c3C)cc2)cc1 [Example 114] | 1.30 mg/L |  | response vs control in vivo at 50 mg/kg (L1210 leukemia; [3]): 121% |
| Cc1c(-c2ccc(-c3ccc(F)cc3)cc2)nc2cc(Cl)c(F)cc2c1C(=O)O [Example 54] |  | < 0.5 | response vs control in vivo at 300 mg/kg (L1210 leukemia; [2]): 125% |

| Structure (SMILES) | in vitro HCT-15 ID50 (50 percent inhibition of number of doublings) [1] | IC50 [1] [mg/L] | further results |
| --- | --- | --- | --- |
| Cc1c(-c2ccc(C3CCCCC3)cc2)nc2ccc(Br)cc2c1C(=O)O [Example 45] | 0.13 mg/L |  | response vs control in vivo at 400 mg/kg (L1210 leukemia; [2]): 160% |
| Cc1c(-c2ccc(-c3ccccc3)cc2F)nc2ccc(F)cc2c1C(=O)O [Example 208] |  | < 0.001 |  |
| Cc1c(-c2ccc(C3CCCCC3)cc2)nc2ccc(C(F)(F)F)cc2c1C(=O)O [Example 48] |  | 0.1 (≈ 0.242 µM) |  |
| Cc1c(-c2ccc(-c3ccccc3)cc2)nc2cccc(Cl)c2c1C(=O)O [Example 80] |  | < 0.5 |  |
| Cc1c(-c2ccc(-c3ccccc3F)cc2)nc2ccc(F)c(Cl)c2c1C(=O)O [Example 84] |  | < 0.1 |  |
| Cc1c(-c2ccc(-c3ccccc3)cc2)nc2cc(Cl)c(Cl)cc2c1C(=O)O [Example 47] |  | 3.2 (≈ 7.84 µM) |  |
| Cc1ccc2nc(-c3ccc(-c4ccccc4)cc3)c(C)c(C(=O)O)c2c1 [Example 104] | 0.22 mg/L |  |  |
| CCc1cccc(-c2ccc(-c3nc4ccc(F)cc4c(C(=O)O)c3C)cc2)c1 [Example 41] |  | 0.0079 (≈ 0.0205 µM) |  |
| Cc1c(-c2ccc(C3CCCCC3)cc2)nc2c(Br)cc(Br)cc2c1C(=O)O [Example 46] |  | 0.42 (≈ 0.835 µM) |  |
| CSc1ccc2nc(-c3ccc(-c4ccccc4)cc3)c(C)c(C(=O)O)c2c1 [Example 76, 2-(4-Biphenyl)-3-methyl-6-methylthio-4-quinoline carboxylic acid] |  |  | response vs control in vivo at 200 mg/kg (L1210 leukemia; [2]): 179% |
| Cc1c(-c2ccc(Oc3ccc([N+](=O)[O-])cc3)cc2)nc2ccc(F)cc2c1C(=O)O [Example 86, 6-Fluoro-3-methyl-2-(4-nitrophenoxyphenyl)-4-quinolinecarboxylic acid] |  |  | response vs control in vivo at 175 mg/kg (L1210 leukemia; Mus musculus, L1210, ip, 720 h, 175 mg/kg i.p., read-out: L1210 Leukemia % T/C (median survival time)): 153% |
| COc1c(-c2ccc(-c3ccccc3)cc2)nc2ccc(F)cc2c1C(=O)O [Example 37] |  |  | L1210 Leukemia % T/C (median survival time) (L1210 leukemia): 155% |
| Cc1c(-c2ccc([S+]([O-])c3ccccc3)cc2)nc2ccc(F)cc2c1C(=O)O (stereo not shown) [Example 34] |  |  | response vs control in vivo at 400 mg/kg (L1210 leukemia; [2]): 170% |
| Cc1c(-c2ccc(-c3ccccc3)cc2)nc2ccc(I)cc2c1C(=O)O [Example 185] |  |  | response vs control in vivo at 50 mg/kg (L1210 leukemia; [2]): 175% |
| Cc1ccc(-c2ccc(-c3nc4ccc(F)cc4c(C(=O)O)c3C)cc2)cc1C [Example 39] |  | < 0.1 |  |
| Cc1c(-c2ccc(-c3ccccc3)cc2)nc2cc(Cl)c(F)cc2c1C(=O)O [Example 61] |  |  | response vs control in vivo at 75 mg/kg (L1210 leukemia; [2]): 160% |
| Cc1c(-c2ccc([S+]([O-])c3ccccc3)cc2)nc2ccc(F)cc2c1C(=O)O (stereo not shown) [Example 124] |  |  | response vs control in vivo at 360 mg/kg (L1210 leukemia; Mus musculus, L1210, ip, 720 h, 360 mg/kg i.p., read-out: L1210 Leukemia % T/C (median survival time)): 184% |
| Cc1ccc(-c2ccc(-c3nc4ccc(F)cc4c(C(=O)O)c3C)cc2)cc1 [Example 120] |  |  | response vs control in vivo at 100 mg/kg (L1210 leukemia; [2]): 132% |
| COc1c(-c2ccc(-c3ccccc3)cc2)nc2ccc(F)cc2c1C(=O)O [Example 127] |  |  | L1210 Leukemia % T/C (median survival time) (L1210 leukemia): 193% |
| Cc1cc2c(C(=O)O)c(C)c(-c3ccc(Oc4ccccc4)cc3)nc2cc1Cl [Example 149] |  |  | response vs control in vivo at 75 mg/kg (L1210 leukemia; [3]): 107% |
